Source: US9090897B2, “Production of IFN-lambda by conventional dendritic cells” (Bavarian Nordic A/S, priority 2009, dated 2015)

Experiments:
[1] = system: BDCA3+ DC; test: Stimulation of human BDCA3+ DC, IFN-λ1 and IFN-λ2 ELISA; format: cell-based; conditions: BDCA3 positive cells vs BDCA1 cells, all donors, 100 μg/ml, 18-24 h
Procedure: (§1) PBMC were prepared from peripheral blood of non-atopic blood donors by density gradient centrifugation and BDCA3+ DC were purified from PBMC using the BDCA3/CD141+Dendritic Cell Isolation Kit (Miltenyi Biotech) on an AutoMACS™ separator. Subsequently, BDCA1+ DC were purified from the BDCA3-depleted PBMC using the BDCA1/CD1c+ Dendritic Cell Isolation Kit (Miltenyi Biotech). […] After stimulation for 18-24 h the supernatants were analyzed for IFN-λ1 and IFN-λ2 by ELISA according to manufacturer's recommendations (Tebu-bio).

[2] = system: PBMC; test: Stimulation of human PBMC, IFN-λ1 and IFN-λ2 ELISA; format: cell-based; conditions: PBMCs and fractions of DC-enriched PBMCs, IL-3, GM-CSF and IFN-γ, 18-24 h
Procedure: as §1

[3] = system: total non parenchymal liver cells; test: In vitro stimulation of total non parenchymal liver cells, IFN-λ and IL-12p70; format: cell-based, mouse; conditions: liver cells from WT mice, 2.5×10^6/ml, IL-3+IL-4+IFN-γ+GM-CSF, 18 h
Procedure: FIGS. 3A and B depict that FL is involved in the production of IFN-λ in vivo. (A) Isolated total non parenchymal liver cells 2.5×10^6/ml were stimulated in the presence of IL-3+IL-4+IFN-γ+GM-CSF with the stimuli as indicated. After 18 h supernatants were analyzed for IFN-λ and IL-12p70. Representative results of 3 experiments are shown. Data represent mean+/−SD of duplicate samples. (B) WT and FL-KO mice were injected i.v. with 100 μg poly IC. After 3-4 h sera were analyzed for IFN-λ and IFN-α. Circles indicate the results of individual mice and columns represent the mean thereof.
Cells were stimulated in vitro with single TLR agonists or combinations thereof containing 10 μg/ml Pam3Cys (InvivoGen), 100 μg/ml poly IC (Axxora), 10 μg/ml LPS (E. coli; Sigma-Aldrich or Axxora), 10 μg/ml R848 (Axxora), 1 μM CpG-1668 or CpG-2216 (TIB-Molbiol), 1 μg/ml profilin of toxoplasma (Axxora). The recombinant cytokines mouse-IL-3, mouse-IL-4, rat-IFN-γ (PeproTech) and mouse-GM-CSF (Tebu-Bio) (10 ng/ml each) were added as indicated. […] IFN-λ in supernatants was analyzed by ELISA and IL-12p70 was determined by FlowCytomix bead assay (Bender Medsystems) according to manufacturer's protocol. […]

Question: For “Polyinosinic:polycytidylic acid [poly IC]”, which IFN-λ1 production [1] is on record?
Answer: major producers

Question: And the IFN-λ2 production [1]?
Answer: major producers

Question: What about the “IFN-λ1 (IL-29) production” value [2] of the same substance?
Answer: induced

Question: And the “IFN-λ2 (IL-28A) production” value [2]?
Answer: induced

Question: What about the IFN-λ production [3] of the same substance?
Answer: produced IFN-λ
